The NIST ThermoML archive (doi:10.1021/je060271a)

Conditions: 343.15 K, Liquid, Vibrating tube method

CCCCCCCC(=O)OCC(COC(=O)CCCCCCC)(COC(=O)CCCCCCC)COC(=O)CCCCCCC [pentaerythritol tetraoctanoate]
Conditions | mass density [kg/m3]
665.9 kPa | 926.5
687.8 kPa | 926.6
706.6 kPa | 926.4
730 kPa | 926.5
755.6 kPa | 926.6
778.5 kPa | 926.5
802.8 kPa | 926.6
832.2 kPa | 926.4
862.6 kPa | 926.6
881.1 kPa | 926.6
902.3 kPa | 926.7
920.9 kPa | 926.6
940.4 kPa | 926.6
964.7 kPa | 926.7
985.7 kPa | 926.6
1011.4 kPa | 926.8
1034.9 kPa | 926.7
1063.7 kPa | 926.8
1088.9 kPa | 926.8
1119.9 kPa | 926.8
1147.2 kPa | 926.8
1182.1 kPa | 926.7
1218.2 kPa | 926.8
1249.3 kPa | 926.9
1282.5 kPa | 926.8
1323.6 kPa | 927.1
1359.7 kPa | 927
1406.5 kPa | 926.9
1447.6 kPa | 927
1490.5 kPa | 927
1543.8 kPa | 927.1
1590.8 kPa | 927.1
1650.5 kPa | 927.1
1702.4 kPa | 927.2
1763.5 kPa | 927.2
1794.1 kPa | 927.3
1881.2 kPa | 927.4
1905.6 kPa | 927.4
1913.3 kPa | 927.3
1919.7 kPa | 927.4
1926.3 kPa | 927.3
1934.1 kPa | 927.4
1941 kPa | 927.5
1952.7 kPa | 927.5
1970.2 kPa | 927.3
2032.8 kPa | 927.4
2121.2 kPa | 927.7
2203.7 kPa | 927.5
2331.4 kPa | 927.7
2366.8 kPa | 927.7
2379.6 kPa | 927.9
2393.5 kPa | 927.8
2403.9 kPa | 927.9
2415.5 kPa | 927.8
2424.6 kPa | 927.8
2434.6 kPa | 927.8
2446.8 kPa | 927.8
2457.7 kPa | 927.7
2468.6 kPa | 927.9
2480.2 kPa | 927.8
2493.9 kPa | 927.9
2505.4 kPa | 927.9
2519.4 kPa | 927.9
2531.1 kPa | 927.9
2543 kPa | 927.9
2555.2 kPa | 927.8
2569.2 kPa | 927.9
2581.3 kPa | 928
2593.5 kPa | 927.9
2608.2 kPa | 928
2620.9 kPa | 927.9
2633.4 kPa | 928.1
2646.4 kPa | 927.9
2659 kPa | 928
2674.6 kPa | 928
2687.8 kPa | 928
2700.8 kPa | 928
2713.8 kPa | 927.9
2729.6 kPa | 928.1
2743.3 kPa | 928
2756.7 kPa | 927.9
2773 kPa | 927.9
2786.3 kPa | 928.1
2800.4 kPa | 928
2814.8 kPa | 928.1
2830 kPa | 928.1
2846.9 kPa | 928.2
2861.3 kPa | 928.1
2875.3 kPa | 928.1
2892.3 kPa | 928.1
2907 kPa | 928.1
2921.6 kPa | 928.2
2936.8 kPa | 928.1
2955 kPa | 928.2
2969.8 kPa | 928.1
2988.2 kPa | 928.2
3003.6 kPa | 928.1
3019.4 kPa | 928.3
3035.5 kPa | 928.4
3053.7 kPa | 928.2
3070.2 kPa | 928.3
3085.9 kPa | 928.2
3102.6 kPa | 928.4
3121.8 kPa | 928.3
3138.3 kPa | 928.4
3154.9 kPa | 928.4
3175.2 kPa | 928.3
3191.8 kPa | 928.3
3209 kPa | 928.3
3229.6 kPa | 928.4
3247 kPa | 928.4
3264.6 kPa | 928.4
3285.8 kPa | 928.4
3303.6 kPa | 928.5
3321.5 kPa | 928.5
3343 kPa | 928.5
3361.5 kPa | 928.6
3379.9 kPa | 928.5
3398.8 kPa | 928.5
3421.3 kPa | 928.5
3440 kPa | 928.4
3463.2 kPa | 928.4
3482.8 kPa | 928.5
3502.4 kPa | 928.4
3522.3 kPa | 928.7
3542.4 kPa | 928.6
3566.7 kPa | 928.7
3583.3 kPa | 928.6
3608.1 kPa | 928.7
3632.7 kPa | 928.7
3653.7 kPa | 928.6
3674.8 kPa | 928.8
3695.9 kPa | 928.7
3721.9 kPa | 928.7
3743.4 kPa | 928.8
3765.8 kPa | 928.7
3792.8 kPa | 928.8
3815.3 kPa | 928.8
3838 kPa | 928.8
3861 kPa | 928.9
3888.6 kPa | 929
3911.4 kPa | 929
3935 kPa | 928.8
3959.2 kPa | 928.9
3987.5 kPa | 929
4012.2 kPa | 929
4037.5 kPa | 928.9
4064.5 kPa | 929
